From publication PMC4467398, “Preclinical antitumor activity of ST7612AA1: a new oral thiol-based histone deacetylase (HDAC) inhibitor” (Oncotarget, 2014)

Tested on: DOHH2 and TMD8 DLBCL cells
Assay: Gene expression profiling (HumanHT-12 v4 BeadChip, limma), ST7612AA1 300 nM 8 hrs vs DMSO
Assay type: cell-based, human

CC(=O)SCCCCC[C@H](NC(=O)[C@H]1CCC(=O)N1)C(=O)Nc1ccccc1 [ST7612AA1]
AveExpr.ST7612 TANK (probe ILMN_1715069) (300 nM 8 hrs): 8.21E-01
AveExpr.ST7612 TBC1D7 (probe ILMN_1661622) (300 nM 8 hrs): 7.33E-01
AveExpr.ST7612 TBC1D16 (probe ILMN_1758457) (300 nM 8 hrs): 7.24E-01
AveExpr.ST7612 TCEA2 (probe ILMN_1665526) (300 nM 8 hrs): 8.50E-01
AveExpr.ST7612 TCEAL3 (probe ILMN_1734190) (300 nM 8 hrs): 7.88E-01
AveExpr.ST7612 TCTN1 (probe ILMN_1685124) (300 nM 8 hrs): 7.81E-01
AveExpr.ST7612 TESK2 (probe ILMN_1654370) (300 nM 8 hrs): 8.37E-01
AveExpr.ST7612 TMEM14A (probe ILMN_1785191) (300 nM 8 hrs): 7.29E-01
AveExpr.ST7612 TMEM49 (probe ILMN_1692754) (300 nM 8 hrs): 8.49E-01
AveExpr.ST7612 TMEM154 (probe ILMN_2088124) (300 nM 8 hrs): 6.89E-01
AveExpr.ST7612 TMOD2 (probe ILMN_3250273) (300 nM 8 hrs): 7.57E-01
AveExpr.ST7612 TPRG1L (probe ILMN_1727479) (300 nM 8 hrs): 7.86E-01
AveExpr.ST7612 TPST1 (probe ILMN_1651950) (300 nM 8 hrs): 7.51E-01
AveExpr.ST7612 TPST2 (probe ILMN_1695432) (300 nM 8 hrs): 7.18E-01
AveExpr.ST7612 TRAFD1 (probe ILMN_1758250) (300 nM 8 hrs): 8.52E-01
AveExpr.ST7612 UBE2A (probe ILMN_2307455) (300 nM 8 hrs): 7.18E-01
AveExpr.ST7612 UBTD1 (probe ILMN_1794914) (300 nM 8 hrs): 8.56E-01
AveExpr.ST7612 UCP2 (probe ILMN_1685625) (300 nM 8 hrs): 7.30E-01
AveExpr.ST7612 UNC84A (probe ILMN_1772316) (300 nM 8 hrs): 7.21E-01
AveExpr.ST7612 UPLP (probe ILMN_3236765) (300 nM 8 hrs): 7.46E-01
AveExpr.ST7612 VASH2 (probe ILMN_1692698) (300 nM 8 hrs): 7.31E-01
AveExpr.ST7612 VPS8 (probe ILMN_1678268) (300 nM 8 hrs): 7.47E-01
AveExpr.ST7612 WDR19 (probe ILMN_1655117) (300 nM 8 hrs): 7.77E-01
AveExpr.ST7612 YPEL5 (probe ILMN_1711069) (300 nM 8 hrs): 6.99E-01
AveExpr.ST7612 ZDHHC8 (probe ILMN_1789492) (300 nM 8 hrs): 8.85E-01
AveExpr.ST7612 ZNF775 (probe ILMN_1691702) (300 nM 8 hrs): 7.39E-01
log ratio 1999-08-31 (probe ILMN_1659953) (300 nM 8 hrs vs DMSO): 8.50E-01
log ratio (probe ILMN_1816244) (300 nM 8 hrs vs DMSO): 7.08E-01
log ratio (probe ILMN_1827736) (300 nM 8 hrs vs DMSO): 8.76E-01
log ratio (probe ILMN_1909886) (300 nM 8 hrs vs DMSO): 7.98E-01
log ratio AACS (ILMN_1698554) (300 nM 8 hrs vs DMSO): 6.24E-01
log ratio ABCA7 (probe ILMN_1743205) (300 nM 8 hrs vs DMSO): 7.64E-01
log ratio ABCC4 (ILMN_1788457) (300 nM 8 hrs vs DMSO): -8.19E-01
log ratio ABCC4 (ILMN_2194009) (300 nM 8 hrs vs DMSO): -8.58E-01
log ratio ABCE1 (ILMN_2330267) (300 nM 8 hrs vs DMSO): -7.82E-01
log ratio ACAT2 (ILMN_1708672) (300 nM 8 hrs vs DMSO): -1.01E+00
log ratio ACOT7 (ILMN_2332250) (300 nM 8 hrs vs DMSO): 6.55E-01
log ratio ACSL3 (ILMN_2360705) (300 nM 8 hrs vs DMSO): 5.95E-01
log ratio ACSL5 (ILMN_1705247) (300 nM 8 hrs vs DMSO): -1.24E+00
log ratio ACSL5 (ILMN_2370882) (300 nM 8 hrs vs DMSO): -9.69E-01
log ratio ADARB1 (probe ILMN_1679797) (300 nM 8 hrs vs DMSO): 7.60E-01
log ratio ADD3 (ILMN_1787378) (300 nM 8 hrs vs DMSO): 6.27E-01
log ratio ADD3 (ILMN_1814526) (300 nM 8 hrs vs DMSO): 6.45E-01
log ratio ADD3 (ILMN_2311278) (300 nM 8 hrs vs DMSO): 6.14E-01
log ratio ADIPOR2 (ILMN_2224833) (300 nM 8 hrs vs DMSO): 6.41E-01
log ratio ADNP2 (ILMN_2080751) (300 nM 8 hrs vs DMSO): 6.66E-01
log ratio ADRBK1 (ILMN_3307926) (300 nM 8 hrs vs DMSO): -6.13E-01
log ratio ADSS (ILMN_2092664) (300 nM 8 hrs vs DMSO): -8.15E-01
log ratio AFMID (ILMN_1707551) (300 nM 8 hrs vs DMSO): 6.36E-01
log ratio AGTPBP1 (ILMN_1718071) (300 nM 8 hrs vs DMSO): 6.75E-01
log ratio AKAP8 (ILMN_1741572) (300 nM 8 hrs vs DMSO): -8.28E-01
log ratio AKAP13 (ILMN_2396956) (300 nM 8 hrs vs DMSO): 6.04E-01
log ratio ALDH2 (probe ILMN_1793859) (300 nM 8 hrs vs DMSO): 8.03E-01
log ratio ALDH3A2 (ILMN_1794825) (300 nM 8 hrs vs DMSO): 6.08E-01
log ratio ALG14 (ILMN_2191822) (300 nM 8 hrs vs DMSO): -6.09E-01
log ratio ALOX5 (probe ILMN_1680996) (300 nM 8 hrs vs DMSO): 8.46E-01
log ratio ALS2 (ILMN_1750256) (300 nM 8 hrs vs DMSO): 6.20E-01
log ratio AMOT (probe ILMN_1792409) (300 nM 8 hrs vs DMSO): 7.65E-01
log ratio AMZ2 (ILMN_1801606) (300 nM 8 hrs vs DMSO): 6.00E-01
log ratio ANAPC13 (ILMN_1793894) (300 nM 8 hrs vs DMSO): -1.08E+00
log ratio ANKLE1 (ILMN_3243457) (300 nM 8 hrs vs DMSO): -8.03E-01
log ratio ANKMY2 (ILMN_1784292) (300 nM 8 hrs vs DMSO): 5.99E-01
log ratio ANKRD6 (ILMN_2178587) (300 nM 8 hrs vs DMSO): 6.74E-01
log ratio ANKRD41 (ILMN_2091590) (300 nM 8 hrs vs DMSO): -9.47E-01
log ratio ANP32B (ILMN_1684293) (300 nM 8 hrs vs DMSO): -9.66E-01
log ratio APAF1 (probe ILMN_1659463) (300 nM 8 hrs vs DMSO): 8.78E-01
log ratio APLP1 (probe ILMN_1763834) (300 nM 8 hrs vs DMSO): 8.17E-01
log ratio APLP2 (ILMN_1710482) (300 nM 8 hrs vs DMSO): 5.98E-01
log ratio ARFIP1 (ILMN_2403906) (300 nM 8 hrs vs DMSO): 5.95E-01
log ratio ARG2 (ILMN_1800898) (300 nM 8 hrs vs DMSO): 6.68E-01
log ratio ARID2 (ILMN_2182335) (300 nM 8 hrs vs DMSO): -6.15E-01
log ratio ARL6IP1 (probe ILMN_1708416) (300 nM 8 hrs vs DMSO): 6.93E-01
log ratio ARSB (ILMN_2242937) (300 nM 8 hrs vs DMSO): -9.59E-01
log ratio ATG2A (probe ILMN_1756006) (300 nM 8 hrs vs DMSO): 8.92E-01
log ratio ATP6V0C (ILMN_1789005) (300 nM 8 hrs vs DMSO): 6.37E-01
